From ChEMBL document CHEMBL3217740, “Novel selective inhibitors of neutral endopeptidase: discovery by screening and hit-to-lead optimisation” (Medchemcomm, 2012) come the findings set out here.

Converted amounts (≈) assume the structure as drawn. A value given as a limit tells only on which side of the number the result lay.

One series deals with Neprilysin (Homo sapiens, UniProt P08473). The series can be described thus: Inhibition of human NEP using N-Dansyl-D-Ala-Gly-p-nitro-Phe-Gly as substrate preincubated for 10 mins followed by substrate addition measured after 2 hrs by spectrophotometric analysis.
Sequence of Neprilysin (P08473 whole entry): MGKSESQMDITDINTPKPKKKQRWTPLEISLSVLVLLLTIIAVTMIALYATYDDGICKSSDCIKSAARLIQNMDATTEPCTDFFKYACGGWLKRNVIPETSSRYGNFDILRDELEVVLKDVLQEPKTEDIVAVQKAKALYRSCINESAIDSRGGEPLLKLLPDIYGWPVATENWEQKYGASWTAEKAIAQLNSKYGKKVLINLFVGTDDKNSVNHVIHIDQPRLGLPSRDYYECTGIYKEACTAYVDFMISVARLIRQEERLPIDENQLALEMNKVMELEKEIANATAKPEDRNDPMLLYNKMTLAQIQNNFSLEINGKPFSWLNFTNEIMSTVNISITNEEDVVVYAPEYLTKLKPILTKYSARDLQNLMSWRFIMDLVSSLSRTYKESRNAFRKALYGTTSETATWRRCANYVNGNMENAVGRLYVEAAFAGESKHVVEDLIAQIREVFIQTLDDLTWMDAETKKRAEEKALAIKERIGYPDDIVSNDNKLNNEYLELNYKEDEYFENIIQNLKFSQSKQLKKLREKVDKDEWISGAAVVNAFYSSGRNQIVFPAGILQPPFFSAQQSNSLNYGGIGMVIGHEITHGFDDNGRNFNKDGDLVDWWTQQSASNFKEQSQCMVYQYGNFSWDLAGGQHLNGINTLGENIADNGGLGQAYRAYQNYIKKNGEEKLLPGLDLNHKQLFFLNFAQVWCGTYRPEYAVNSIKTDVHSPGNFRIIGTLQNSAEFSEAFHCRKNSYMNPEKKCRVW
Series [1] is described as follows: Solubility of the compound in PBS buffer at pH 7.4 after 24 hrs by LC-MS/MS analysis. Type of series: physicochemical.
Series [2] is described as follows: Half life in rat plasma at 10 uM by LC-MS/MS. Type of series: ADME, cell-free.
Series [3] is described as follows: Stability of the compound assessed as GSH adduct formation by LC-MS analysis. Type of series: ADME.
Series [4] has as its target T1, Endothelin-converting enzyme 1 (Homo sapiens, UniProt P42892).
T1 sequence (P42892 whole entry): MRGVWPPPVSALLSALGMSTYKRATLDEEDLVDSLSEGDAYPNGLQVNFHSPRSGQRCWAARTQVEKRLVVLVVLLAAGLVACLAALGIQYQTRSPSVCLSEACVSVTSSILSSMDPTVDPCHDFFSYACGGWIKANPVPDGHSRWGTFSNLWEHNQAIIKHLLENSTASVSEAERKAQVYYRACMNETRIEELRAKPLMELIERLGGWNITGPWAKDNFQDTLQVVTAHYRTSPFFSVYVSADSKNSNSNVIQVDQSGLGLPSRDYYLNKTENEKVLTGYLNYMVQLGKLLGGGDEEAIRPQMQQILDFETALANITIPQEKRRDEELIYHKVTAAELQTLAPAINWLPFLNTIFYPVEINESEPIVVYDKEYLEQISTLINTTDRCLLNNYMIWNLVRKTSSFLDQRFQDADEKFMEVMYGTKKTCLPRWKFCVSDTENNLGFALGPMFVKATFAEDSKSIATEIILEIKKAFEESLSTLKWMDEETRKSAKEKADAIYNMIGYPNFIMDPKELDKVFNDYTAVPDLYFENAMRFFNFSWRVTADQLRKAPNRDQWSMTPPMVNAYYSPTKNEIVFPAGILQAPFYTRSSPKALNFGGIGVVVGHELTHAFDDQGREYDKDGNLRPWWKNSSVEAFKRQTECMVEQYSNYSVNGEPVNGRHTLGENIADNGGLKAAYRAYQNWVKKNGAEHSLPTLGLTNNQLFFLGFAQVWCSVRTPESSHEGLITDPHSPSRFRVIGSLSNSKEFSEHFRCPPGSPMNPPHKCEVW
The series can be described thus: Inhibition of ECE-1 in human NCO cells using Mca-Arg-Pro-Pro-GlyPhe-Ser-Ala-DpaOH as substrate after 45 mins by fluorescence assay. Type of series: cell-based.

Series [5] has as its target Angiotensin-converting enzyme (Homo sapiens, UniProt P12821). The experiment in a line: Inhibition of human ACE-1 using Abz-Gly-p-nitro-Phe-Pro-OH as substrate preincubated for 10 mins followed by substrate addition measured after 17 hrs by spectrophotometric analysis.
A short description of series [6]: 1-octanol-PBS distribution coefficient, Log D of the compound at pH 7.4 after 2 hrs by LC-MS analysis. Type of series: physicochemical.

Sequence of Angiotensin-converting enzyme (P12821 whole entry): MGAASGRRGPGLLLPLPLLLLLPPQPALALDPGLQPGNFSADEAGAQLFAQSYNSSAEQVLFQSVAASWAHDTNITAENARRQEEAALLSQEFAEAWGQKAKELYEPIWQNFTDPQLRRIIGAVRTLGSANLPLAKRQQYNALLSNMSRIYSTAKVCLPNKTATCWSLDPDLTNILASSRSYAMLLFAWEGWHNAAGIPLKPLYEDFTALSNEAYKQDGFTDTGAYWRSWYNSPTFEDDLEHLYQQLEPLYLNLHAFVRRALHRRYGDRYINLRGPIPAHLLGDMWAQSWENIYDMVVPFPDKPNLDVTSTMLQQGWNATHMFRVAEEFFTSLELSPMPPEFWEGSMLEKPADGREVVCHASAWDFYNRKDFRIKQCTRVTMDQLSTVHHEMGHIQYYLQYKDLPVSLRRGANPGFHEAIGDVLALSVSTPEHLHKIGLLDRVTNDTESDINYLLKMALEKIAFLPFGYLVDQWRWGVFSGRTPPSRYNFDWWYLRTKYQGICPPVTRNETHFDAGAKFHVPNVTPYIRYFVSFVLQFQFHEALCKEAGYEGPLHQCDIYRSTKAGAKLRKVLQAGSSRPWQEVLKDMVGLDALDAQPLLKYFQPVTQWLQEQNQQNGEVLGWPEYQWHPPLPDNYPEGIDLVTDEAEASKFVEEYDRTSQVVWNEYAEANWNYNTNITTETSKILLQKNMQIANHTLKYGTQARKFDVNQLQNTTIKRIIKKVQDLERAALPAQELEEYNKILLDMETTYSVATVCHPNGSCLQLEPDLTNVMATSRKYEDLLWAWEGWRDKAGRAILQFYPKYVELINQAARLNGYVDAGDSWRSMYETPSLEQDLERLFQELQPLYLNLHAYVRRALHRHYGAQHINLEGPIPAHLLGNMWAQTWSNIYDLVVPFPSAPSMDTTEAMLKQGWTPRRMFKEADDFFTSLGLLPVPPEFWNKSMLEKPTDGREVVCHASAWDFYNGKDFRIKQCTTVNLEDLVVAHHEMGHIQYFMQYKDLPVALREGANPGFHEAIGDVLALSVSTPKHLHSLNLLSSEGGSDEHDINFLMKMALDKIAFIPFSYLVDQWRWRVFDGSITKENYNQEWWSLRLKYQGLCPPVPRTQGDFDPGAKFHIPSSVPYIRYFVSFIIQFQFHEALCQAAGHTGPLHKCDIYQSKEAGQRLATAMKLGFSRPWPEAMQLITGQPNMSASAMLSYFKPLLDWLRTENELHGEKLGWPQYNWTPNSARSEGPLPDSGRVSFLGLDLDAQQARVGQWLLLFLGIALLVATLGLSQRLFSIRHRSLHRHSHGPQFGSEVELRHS

As for `COC(=O)[C@H](CC(=O)N[C@@H](CO)C(=O)O)CC(C)C`, the IC50 (as a rule, the concentration that gives 50% inhibition) on Neprilysin is 79.4 µM. Also, in series [1], the solubility (usually how much of the substance goes into solution per volume) at 24 h came out at 160 µM (≈ 44 µg/mL). Also, the half-life – broadly, the time needed for the level to fall by half in the phase considered – at 10 µM in series [2] was 6 min.

`COC(=O)[C@@H](CC(=O)N[C@@H](CO)C(=O)O)CC(C)C`: the concentration for half-maximal inhibition (IC50) on Neprilysin is over 1000 µM.

The compound `COC(=O)[C@H](CC(=O)N[C@H](CO)C(=O)O)CC(C)C` showed an IC50 on Neprilysin of over 1000 µM.

The compound `COC(=O)[C@@H](CC(=O)N[C@H](CO)C(=O)O)CC(C)C` had a concentration for half-maximal inhibition (IC50) against Neprilysin of over 1000 µM.

Take `CC(C)C[C@H]1CC(=O)N([C@@H](CO)C(=O)O)C1=O`: the IC50 against Neprilysin is 2.51 µM. Besides, in series [3], the Stability entry is on record as “Unstable”.

`COC(=O)[C@H](CC(C)C)NC(=O)N[C@@H](CO)C(=O)O`: the half-inhibitory concentration (IC50) on Neprilysin is over 1000 µM.

Turning to `CC(C)C[C@@H](CC(=O)N[C@@H](CO)C(=O)O)C(=O)O`, the IC50 was 0.794 µM against Neprilysin, over 31.6 µM in series [4] and over 31.6 µM in series [5]. For the same compound, the logD – broadly, lipophilicity at a set pH, counting ionised and neutral species – at 2 h in series [6] was -3.4. In series [1], this compound gave a solubility at 24 h of over 200 µM. For the same compound, in series [2], the half-life at 10 µM was over 1440 min.

In the case of `CC(C)C[C@H](CC(=O)N[C@@H](CO)C(=O)O)C(=O)O`, the concentration for half-maximal inhibition (IC50) was over 1000 µM on Neprilysin, over 31.6 µM in series [4] and over 31.6 µM in series [5]. Further, the logD at 2 h in series [6] was -3.8. In addition, in series [1], the solubility at 24 h is over 200 µM. Besides, in series [2], the half-life at 10 µM was over 1440 min.

Consider `CC(C)C[C@@H](CC(=O)O)C(=O)N[C@@H](CO)C(=O)O`, for which the half-inhibitory concentration (IC50) is 0.0631 µM on Neprilysin, over 31.6 µM in series [4] and over 31.6 µM in series [5]. The same compound yielded a logD at 2 h in series [6] of -3.7. Moreover, in series [1], the solubility at 24 h is over 200 µM. Further, the half-life at 10 µM in series [2] was over 1440 min. Moreover, the Stability result in series [3] is “Stable”.

As for `CC(C)C[C@H](CC(=O)O)C(=O)N[C@@H](CO)C(=O)O`, the figures for the IC50 (at Neprilysin; in series [4]; in series [5]) were 6.31 µM, over 31.6 µM and over 31.6 µM, respectively. In addition, the logD at 2 h in series [6] was -3.8. In series [1], the solubility at 24 h was over 200 µM. In addition, in series [2], the half-life at 10 µM is over 1440 min.

Compound `COC(=O)C(CC(C)C)C(=O)N[C@@H](CO)C(=O)O` (mixture of isomers) had an IC50 against Neprilysin of 50.1 µM.

In turn, `COC(=O)C(CC(C)C)C(=O)N[C@H](CO)C(=O)O` (mixture of isomers) gave a 50% inhibitory concentration (IC50) on Neprilysin of over 1000 µM.

Compound `COC(=O)[C@H](CC(C)C)NC(=O)N[C@H](CO)C(=O)O` (single isomer, unassigned) showed an IC50 on Neprilysin of over 1000 µM.
